Our source for the EC50 and IC50 values is patent publication US8378117B2 (priority 2005, dated 2013).

Read-outs that look alike come from different tables or passages of the source.

For test [1], the target named is T1, CB2 receptor (Homo sapiens, UniProt P34972).
T1 construct: expressed in transfected cells
Nature of the test: Functional cell-based assay, CB2 receptor mediated change in CRE β-gal expression (SK-N-MC cells). Conditions: CB2 Receptor Functional Agonist EC50, forskolin induced β-galactosidase activity, SK-N-MC cells. Put shortly: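 SK-N-MC cells stably co-transfected with human CB2 receptor and CRE β-gal reporter; β-galactosidase activity measured after forskolin stimulation. Compound-treated activity expressed as percent of vehicle control; EC50 from linear regression over varying compound concentrations.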

Test [2] addresses T2, CB1 receptor (Homo sapiens, UniProt P21554).
T2 construct: expressed in transfected cells
Nature of the test: Modified functional cell-based assay (Beta-Glo luminescence), CB1 receptor. As for the experimental part:
(§1) Additional functional activity studies were performed with minor modifications. Beta galactosidase activity was quantified using the luminescent Beta-Glo Assay System (Promega Corp. Madison, Wis.) and an Orion Microplate Luminometer (Berthold Detection Systems, Oak Ridge, Tenn.). The EC50 values were calculated using GraphPad Prism and a four parameter logistic equation.
(§2) The functional activity EC50 value for compounds tested (shown in Table 8) were obtained from studies in which varying compound concentrations were used. With the exception of Cpd 237 (n=3), one sample for each compound was tested.

Test [3] concerns the target T1, CB2 receptor. Nature of the test: Modified functional cell-based assay (Beta-Glo luminescence), CB2 receptor. Conditions: CB2 EC50 (Receptor Functional Activity), one sample per compound, Cpd 237 n=3. The method, then:
as §1, §2

Test [4] has as its target T2, CB1 receptor. The test can be described thus: Modified binding assay, CB1 receptor in CHO cells, [3H]CP 55940. Particulars: [3H]CP 55940 0.5 nM, 120 minutes at 37° C. The method, then: Additional receptor binding studies were performed with minor modifications as detailed below.
The human CB1 and CB2 receptors were stably expressed in CHO cells as described in Rinaldi-Carmona, M., Calandra, B., Shire, D., Bouaboula, M., Oustric, D., Barth, F., Casellas, P., Ferrara, P. and Le Fur, G. (1996) J. PharmacoL Exp. Ther., 278: 871-878 and Munro, S., Thomas, K. L. and Abu-Shaar, M. (1993) Nature, 365: 61-65, respectively. [^3H]CP 55940 (0.5 nM) was used as the radioligand for the CB1 receptor binding assay. [^3H]WIN 55212 (0.8 nM) was used as the radioligand for the CB2 receptor binding assay. Incubation was carried out for 120 minutes at 37° C.
The specific ligand binding to the receptors is defined as the difference between the total binding and the nonspecific binding determined in the presence of an excess of unlabelled ligand. The results are expressed as a percent of control specific binding ((measured specific binding/control specific binding)×100) obtained in the presence of the test compounds.
The IC50 values (concentration causing a half-maximal inhibition of control specific binding) were determined by non-linear regression analysis of the competition curves generated with mean replicate values using Hill equation curve fitting (where Y=specific binding, D=minimum specific binding, A=maximum specific binding, C=compound concentration, C50=IC50 and nH=slope factor): (Y=D+[(A−D)/(1+(C/C50)^nH)] CB1 and CB2 Receptor Binding Results
For compounds tested, an IC50 binding value was obtained from percent inhibition studies in which various test concentrations were used.

Where [5] appears, read: CB1 EC50 (Receptor Functional Activity), one sample per compound, Cpd 237 n=3.

T1 sequence (P34972 whole entry): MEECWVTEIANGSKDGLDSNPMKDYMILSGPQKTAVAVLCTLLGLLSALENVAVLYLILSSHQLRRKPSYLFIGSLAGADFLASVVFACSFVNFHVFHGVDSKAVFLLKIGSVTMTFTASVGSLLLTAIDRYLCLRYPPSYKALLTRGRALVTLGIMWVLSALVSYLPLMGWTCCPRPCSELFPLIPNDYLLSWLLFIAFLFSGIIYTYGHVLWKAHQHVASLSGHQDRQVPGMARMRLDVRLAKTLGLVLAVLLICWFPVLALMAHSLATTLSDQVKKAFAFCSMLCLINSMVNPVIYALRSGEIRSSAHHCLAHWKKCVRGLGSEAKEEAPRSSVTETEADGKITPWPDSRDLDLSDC
T2 sequence (P21554 whole entry): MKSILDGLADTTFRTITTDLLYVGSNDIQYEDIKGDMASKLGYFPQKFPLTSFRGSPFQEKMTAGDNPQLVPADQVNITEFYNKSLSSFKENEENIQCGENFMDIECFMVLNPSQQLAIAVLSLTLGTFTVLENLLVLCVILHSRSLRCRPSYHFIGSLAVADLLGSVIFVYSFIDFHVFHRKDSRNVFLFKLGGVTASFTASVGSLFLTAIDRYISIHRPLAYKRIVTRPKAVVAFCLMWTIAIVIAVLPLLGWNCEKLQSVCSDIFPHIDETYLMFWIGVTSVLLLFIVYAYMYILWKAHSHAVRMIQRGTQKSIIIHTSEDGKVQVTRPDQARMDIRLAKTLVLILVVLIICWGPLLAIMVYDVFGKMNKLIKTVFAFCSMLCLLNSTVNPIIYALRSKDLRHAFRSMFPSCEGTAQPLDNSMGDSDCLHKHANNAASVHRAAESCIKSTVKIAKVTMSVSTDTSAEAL

As for `C[C@H](NS(=O)(=O)/C=C/c1n[nH]c2c1CCCCC2Cc1cccc(F)c1)c1ccccc1` (single isomer, unassigned) [Cpd 232, (2E)-2-[(8R*)-8-(3-fluoro-benzyl)-1,4,5,6,7,8-hexahydro-cycloheptapyrazol-3-yl]-ethenesulfonic acid [(1S)-1-phenyl-ethyl]-amide], the EC50 on CB2 receptor [1] was 9 nM; at CB1 receptor [2] (setting [5]), about 3.2 µM; at CB2 receptor [3], 150 nM.

On to `O=C(N[C@H](CO)c1ccccc1)c1n[nH]c2c1CCCCC2Cc1cccc(Cl)c1` (single isomer, unassigned) [Cpd 230, (8R*)-8-(3-chloro-benzyl)-1,4,5,6,7,8-hexahydro-cycloheptapyrazole-3-carboxylic acid [(1S)-2-hydroxy-1-phenyl-ethyl]-amide], for which the IC50 on CB1 receptor [4] worked out at 370 nM. The figures for the EC50 at CB2 receptor [1], at CB1 receptor [2] (setting [5]) and at CB2 receptor [3] were 2 nM, over 1 µM and 11 nM, respectively.

`C[C@H](NS(=O)(=O)/C=C/c1n[nH]c2c1CCCC/C2=C\c1ccc(Cl)cc1)c1ccccc1` [Cpd 237, (2E,8E)-2-[8-(4-chloro-benzylidene)-1,4,5,6,7,8-hexahydro-cycloheptapyrazol-3-yl]-ethenesulfonic acid [(1S)-1-phenyl-ethyl]-amide] gave an IC50 on CB1 receptor [4] of over 3000 nM. The EC50 is 9 nM on CB2 receptor [1], 3.6 µM at CB1 receptor [2] (setting [5]) and 3200 nM at CB2 receptor [3].

For the compound `O=C(N[C@H](CO)c1ccccc1)c1n[nH]c2c1CCCCC2Cc1cccc(Cl)c1` (single isomer, unassigned) [Cpd 231, (8S*)-8-(3-chloro-benzyl)-1,4,5,6,7,8-hexahydro-cycloheptapyrazole-3-carboxylic acid [(1S)-2-hydroxy-1-phenyl-ethyl]-amide], on CB1 receptor [4], the half-maximal inhibitory concentration (IC50) is over 3000 nM. In addition, the EC50 on CB2 receptor [1] is 12 nM; on CB1 receptor [2] (read-out: CB1 EC50 (Receptor Functional Activity), one sample per compound, Cpd 237 n=3), over 1 µM; on CB2 receptor [3], 82 nM.

Broadly, the EC50 is the concentration needed to bring the measured effect to its halfway point. The term IC50 denotes the concentration needed to halve the response being measured.
